Results taken from ChEMBL document CHEMBL5380807, “Imidazo[1,2-a]Pyridine Derivatives as Novel Dual-Target Inhibitors of ABCB1 and ABCG2 for Reversing Multidrug Resistance” (J Med Chem, 2023).
The source made the active and inactive calls. The rule behind the calls is not given here.

What was measured:
[1] = Cytotoxicity against human K562 cells assessed as decrease in cell survival rate incubated for 72 hrs by MTS assay; assay type: toxicity, cell-based
[2] = Cytotoxicity against human K562/A02 cells overexpressing ABCB1 assessed as decrease in cell survival rate incubated for 72 hrs by MTS assay; assay type: toxicity, cell-based
K562/A02 [3] = assay: Reversal of ABCB1 mediated adriamycin resistance in human K562/A02 cells overexpressing ABCB1 assessed as reduction in survival rate at 1 uM preincubated for 1 hrs followed by adriamycin addition and measured after 72 hrs by MTS assay; assay type: functional; details: time 73.0 hrs
K562 [4] = assay: Cytotoxicity against human K562 cells assessed as decrease in cell survival rate at 5 uM incubated for 72 hrs by MTS assay; assay type: toxicity, cell-based; details: k562, 72 h
K562 [5] = assay: Reversal of ABCB1 mediated adriamycin resistance in human K562 cells assessed as reduction in survival rate at 1 uM preincubated for 1 hrs followed by adriamycin addition and measured after 72 hrs by MTS assay; assay type: functional, cell-based; details: time 73.0 hrs
K562 [6] = assay: Reversal of ABCB1 mediated adriamycin resistance in human K562 cells assessed as reduction in survival rate at 5 uM preincubated for 1 hrs followed by adriamycin addition and measured after 72 hrs by MTS assay; assay type: functional, cell-based; details: time 73.0 hrs
K562/A02 [7] = assay: Cytotoxicity against human K562/A02 cells overexpressing ABCB1 assessed as decrease in cell survival rate at 5 uM incubated for 72 hrs by MTS assay; assay type: toxicity, cell-based; details: k562/a02, 72 h
K562/A02 [8] = assay: Reversal of ABCB1 mediated adriamycin resistance in human K562/A02 cells overexpressing ABCB1 assessed as reduction in survival rate at 5 uM preincubated for 1 hrs followed by adriamycin addition and measured after 72 hrs by MTS assay; assay type: functional; details: time 73.0 hrs
K562 [9] = assay: Reversal of ABCB1 mediated adriamycin resistance in human K562 assessed as decrease in survival rate at 1.25 to 5 uM preincubated for 1 hrs followed by adriamycin addition and measured after 72 hrs by MTS assay; assay type: functional, cell-based; details: dose 1.25-5 µM, time 73.0 hrs
K562/A02 [10] = assay: Reversal of ABCB1 mediated adriamycin resistance in human K562/A02 overexpressing ABCB1 assessed as decrease in survival rate at 1.25 to 5 uM preincubated for 1 hrs followed by adriamycin addition and measured after 72 hrs by MTS assay; assay type: functional, cell-based; details: dose 1.25-5 µM, time 73.0 hrs

Compound: COc1cc2c(cc1OC)CN(Cc1c(-c3ccc(NC(=O)COc4cccc([N+](=O)[O-])c4)cc3)nc3ccccn13)CC2
- IC50 at 72 h [1]: > 100 µM
- IC50 at 72 h [2]: > 100 µM

Compound: COc1cc2c(cc1OC)CN(CC(=O)Nc1ccc(-c3nc4ccccn4c3CN3CCCCC3)cc1)CC2
- Activity (K562/A02 [3]): Active
- Activity (K562 [4]): Non-Toxic
- Activity (K562 [5]): Active
- Activity (K562 [6]): Active
- Activity (K562/A02 [7]): Non-Toxic
- Activity (K562/A02 [8]): Active

Compound: COc1cc2c(cc1OC)CN(CC(=O)Nc1ccc(-c3nc4ccccn4c3CO)cc1)CC2
- Activity (K562/A02 [3]): inactive
- Activity (K562 [4]): Non-Toxic
- Activity (K562 [5]): inactive
- Activity (K562 [6]): inactive
- Activity (K562/A02 [7]): Non-Toxic
- Activity (K562/A02 [8]): inactive

Compound: COc1cc2c(cc1OC)CN(Cc1c(-c3ccc(NC(=O)Cn4cnnc4)cc3)nc3ccccn13)CC2
- IC50 at 72 h [1]: > 100 µM
- IC50 at 72 h [2]: > 100 µM

Compound: COc1cc2c(cc1OC)CN(Cc1c(-c3ccc(NC(=O)CN4CCOCC4)cc3)nc3ccccn13)CC2
- IC50 at 72 h [1]: > 100 µM
- IC50 at 72 h [2]: > 100 µM

Compound: CN(C)CC(=O)Nc1ccc(-c2nc3ccccn3c2CN2CCN(c3ccccc3)CC2)cc1
- IC50 at 72 h [1]: 25.2 µM
- IC50 at 72 h [2]: 51.2 µM

Compound: Cc1ccc(/C=C/C(=O)Nc2ccc(-c3nc4ccccn4c3CN3CCN(c4ccccc4)CC3)cc2)cc1
- IC50 at 72 h [1]: 32.8 µM
- IC50 at 72 h [2]: > 100 µM

Compound: O=C(CCN1CCN(c2ccccc2)CC1)Nc1ccc(-c2nc3ccccn3c2CN2CCN(c3ccccc3)CC2)cc1
- Activity (K562 [9]): inactive
- IC50 at 72 h [1]: 58.8 µM
- Activity (K562/A02 [10]): Active
- IC50 at 72 h [2]: 22.9 µM

Compound: CCN(CC)CC(=O)Nc1ccc(-c2nc3ccccn3c2CN2CCc3cc(OC)c(OC)cc3C2)cc1
- IC50 at 72 h [1]: > 100 µM
- IC50 at 72 h [2]: > 100 µM

Compound: COc1cc2c(cc1OC)CN(Cc1c(-c3ccc(NC(=O)COc4cccc5cccnc45)cc3)nc3ccccn13)CC2
- IC50 at 72 h [1]: > 100 µM
- IC50 at 72 h [2]: > 100 µM

Compound: O=C(/C=C/c1ccccc1)Nc1ccc(-c2nc3ccccn3c2CN2CCN(c3ccccc3)CC2)cc1
- IC50 at 72 h [1]: > 100 µM
- IC50 at 72 h [2]: > 100 µM

Compound: O=C(CNCc1ccccc1)Nc1ccc(-c2nc3ccccn3c2CN2CCN(c3ccccc3)CC2)cc1
- Activity (K562 [9]): inactive
- IC50 at 72 h [1]: 25.8 µM
- Activity (K562/A02 [10]): Active
- IC50 at 72 h [2]: 28.8 µM

Compound: COc1cc2c(cc1OC)CN(Cc1c(-c3ccc(NC(=O)CCN4CCN(c5ccccc5)CC4)cc3)nc3ccccn13)CC2
- IC50 at 72 h [1]: 93.1 µM
- IC50 at 72 h [2]: 30.6 µM

Compound: Cc1cccc(/C=C/C(=O)Nc2ccc(-c3nc4ccccn4c3CN3CCN(c4ccccc4)CC3)cc2)c1
- IC50 at 72 h [1]: > 100 µM
- IC50 at 72 h [2]: > 100 µM

Compound: COc1cc2c(cc1OC)CN(Cc1c(-c3ccc(NC(=O)CN4CCN(c5ccc(OC(F)(F)F)cc5)CC4)cc3)nc3ccccn13)CC2
- IC50 at 72 h [1]: 83.7 µM
- IC50 at 72 h [2]: 81.2 µM

Compound: CCN(CC)CC(=O)Nc1ccc(-c2nc3ccccn3c2CN2CCN(c3ccccc3)CC2)cc1
- IC50 at 72 h [1]: 24.3 µM
- IC50 at 72 h [2]: 40 µM

Compound: O=C(/C=C/c1ccc(Cl)cc1)Nc1ccc(-c2nc3ccccn3c2CN2CCN(c3ccccc3)CC2)cc1
- IC50 at 72 h [1]: > 100 µM
- IC50 at 72 h [2]: > 100 µM

Compound: O=C1CCCN1c1ccc(-c2nc3ccccn3c2CN2CCN(c3ccccc3)CC2)cc1
- IC50 at 72 h [1]: > 100 µM
- IC50 at 72 h [2]: > 100 µM

Compound: COc1cc2c(cc1OC)CN(Cc1c(-c3ccc(NC(=O)COc4ccccc4Br)cc3)nc3ccccn13)CC2
- IC50 at 72 h [1]: > 100 µM
- IC50 at 72 h [2]: > 100 µM

Compound: COc1cc2c(cc1OC)CN(Cc1c(-c3ccc(NC(=O)COc4ccc(C)cc4)cc3)nc3ccccn13)CC2
- Activity (K562 [9]): inactive
- IC50 at 72 h [1]: > 100 µM
- Activity (K562/A02 [10]): Active
- IC50 at 72 h [2]: > 100 µM

Compound: O=C(CN1CCN(c2ccccc2)CC1)Nc1ccc(-c2nc3ccccn3c2CN2CCN(c3ccccc3)CC2)cc1
- IC50 at 72 h [1]: > 100 µM
- IC50 at 72 h [2]: > 100 µM

Compound: COc1cc2c(cc1OC)CN(Cc1c(-c3ccc(NC(=O)CN4CCN(c5ccccc5)CC4)cc3)nc3ccccn13)CC2
- IC50 at 72 h [1]: > 100 µM
- IC50 at 72 h [2]: > 100 µM

Compound: COc1cc2c(cc1OC)CN(Cc1c(-c3ccc(NC(=O)/C=C/c4cc(OC)c(OC)c(OC)c4)cc3)nc3ccccn13)CC2
- IC50 at 72 h [1]: > 100 µM
- IC50 at 72 h [2]: > 100 µM

Compound: O=C(CCCN1CCN(c2ccccc2)CC1)Nc1ccc(-c2nc3ccccn3c2CN2CCN(c3ccccc3)CC2)cc1
- Activity (K562 [9]): Active
- IC50 at 72 h [1]: 3.72 µM
- Activity (K562/A02 [10]): Active
- IC50 at 72 h [2]: 7.07 µM
